Molecules are shown by their SMILES. Entries after “also recorded” stand apart in the source; their conditions may differ.

Series [1] in a line: TEASE-1 plasma gildeuretinol (replacement of plasma vitamin A). It counts as in vivo, human. The note with it: for percentage of gildeuretinol over total vitamin A (as retinol+gildeuretinol): plasma, 8-week pharmacokinetic analysis. The protocol: The Tolerability and Effects of gildeuretinol acetate in Stargardt Disease (Clinical trial group 1, also known as TEASE-1) was a 24-month, multicenter, double-masked, placebo-controlled trial designed to evaluate the efficacy and safety of daily oral gildeuretinol acetate in slowing the growth of atrophic retinal lesions in Stargardt disease patients. The trial was conducted at multiple sites in the United States (NCT02402660).
Patients 12 years or older, clinically diagnosed with Stargardt disease, with at least one ABCA4 mutation, at least one eye presenting with well-demarcated areas of reduced fundus autofluorescence including retinal atrophic lesions, and with any visual acuity, were enrolled.
Patients were randomized to gildeuretinol acetate 14 mg capsules, gildeuretinol acetate 24 mg capsules, or placebo capsules, to be taken once daily for one year. After one year, 50% of randomly selected patients receiving placebo were crossed over in a 1:1 ratio to gildeuretinol acetate 14 mg capsules or gildeuretinol acetate 24 mg capsules for a second year.
Gildeuretinol acetate and placebo capsules were identical appearing capsules. Patients were advised to avoid vitamin A-containing supplements and liver-based products. Fruits and vegetables could be consumed without limitation. Trial visits occurred at 8 weeks and 6, 12, 18, and 24 months following screening and randomization.

Series [2] deals with asymptomatic Stargardt disease patients. The series is described as follows: TEASE-3 fundus autofluorescence (FAF) imaging. The note with it: after two to four years of treatment, three patients. The class given is in vivo, human. How it is done:
The tolerability and effects of ALK-001 (gildeuretinol acetate) in Stargardt Disease (Clinical trial group 3, also known as TEASE-3) study was an open-label, multicenter, case control study designed to evaluate the efficacy and safety of gildeuretinol acetate on the progression of Stargardt disease in asymptomatic individuals. The trial was conducted at multiple sites in the United States.
To assess the safety and efficacy of gildeuretinol acetate in preventing vision loss in asymptomatic individuals, gildeuretinol acetate 14 mg capsules were administered to individuals showing early signs of retinal damage while maintaining approximately 20/20 vision and no subjective loss of vision. […]
Disease progression was monitored by best-corrected visual acuity (BCVA) reported in number of Early Treatment Diabetic Retinopathy Study (ETDRS) letters, fundus autofluorescence (FAF) imaging, loss of photoreceptors (as measured by the ellipsoid zone band loss) by optical coherence tomography (OCT) and retinal sensitivity by microperimetry.

As to `[2H]C([2H])([2H])C(/C=C/C=C(C)/C=C/C1=C(C)CCCC1(C)C)=C\COC(C)=O` [gildeuretinol acetate], the “replacement of plasma vitamin A sustained throughout the treatment period” value in series [1] (14 or 24 mg daily, 24 months) is on record as “greater than 80%”. In addition, the “patients in whom over 80% of plasma vitamin A was replaced” value in series [1] (after six months) is on record as 39 out of 40. Moreover, in series [1] (daily doses approximately 14 to 24 mg, within a matter of weeks), the “serum vitamin A replaced with gildeuretinol” value was “more than 80%”. Further, the “total plasma vitamin A and retinoic acid (combined vitamin A and gildeuretinol-derived forms) versus placebo group” value in series [1] (in vivo) is listed as “the same”. The “percentage of gildeuretinol over total vitamin A (as retinol+gildeuretinol)” value in series [1] (14 mg cohort) was 87%; in series [1] (24 mg cohort), 92%. In series [2], the “disease progression / changes by FAF imaging” value was “none of the three treated Stargardt disease patients exhibited changes by FAF; also recorded: no observable disease progression; also recorded: no visible disease progression by fundus autofluorescence imaging occurred”.

For the origin of these results see patent US20260256728A1, “TREATMENT FOR ASYMPTOMATIC STARGARDT DISEASE PATIENTS” (priority 2024, published 2026).
